The nature of data set [1]: Half life in human serum. The class given is ADME, cell-free.
Data set [2] addresses T1, Mu-type opioid receptor (Homo sapiens, UniProt P35372). As to the kind of experiment: Agonist activity at human recombinant mu-opioid receptor expressed in CHO cells after 60 mins by [35S]GTPgammaS binding assay. It counts as functional, cell-based.
Data set [3] addresses T1, Mu-type opioid receptor. Kind of data set: Displacement of [3H]DAMGO from human recombinant mu-opioid receptor expressed in CHO cells after 60 mins by liquid scintillation assay. It counts as cell-based.

Activity calls are given as the source filed them. The rule behind the calls is not given here.

T1 sequence (P35372 whole entry): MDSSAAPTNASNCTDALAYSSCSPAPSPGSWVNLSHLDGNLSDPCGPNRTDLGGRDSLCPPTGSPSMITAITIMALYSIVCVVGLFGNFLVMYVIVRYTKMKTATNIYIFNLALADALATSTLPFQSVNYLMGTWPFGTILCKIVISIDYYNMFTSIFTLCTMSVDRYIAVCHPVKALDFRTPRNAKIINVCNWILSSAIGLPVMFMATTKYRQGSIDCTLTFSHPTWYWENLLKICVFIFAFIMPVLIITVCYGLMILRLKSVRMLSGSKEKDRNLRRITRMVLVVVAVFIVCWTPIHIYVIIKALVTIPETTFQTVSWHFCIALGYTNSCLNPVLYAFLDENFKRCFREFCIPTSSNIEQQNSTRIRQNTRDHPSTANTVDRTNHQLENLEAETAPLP

On to `CC(C)C[C@H](CN(C=O)[C@H](Cc1ccccc1)CN(C=O)CCN(C=O)CCN(C=O)[C@@H](CN)Cc1ccc(O)cc1)NS(C)(=O)=O`, for which, in data set [1], the half-life was 41 h. In addition, the result at Mu-type opioid receptor [2] was inactive. At Mu-type opioid receptor [3], the half-maximal inhibitory concentration (IC50) turned out to be 3.2 µM and the Ki worked out at 0.4 µM.
